Measured values reported in a melting point compilation (Tetko et al.).

Structure (SMILES)	melting point [°C]
Cn1c(=O)c2[nH]c(Br)nc2n(C)c1=O	299 to 301
COc1ccc(S(=O)(=O)NC2CC2)cc1N	119 to 121
FC(F)(F)c1ccc2sc(Cl)nc2c1	57 to 59
Nc1ncc(-c2ccc(Br)cc2)[nH]1	194 to 196
OCCSc1ccnc2cc(Cl)ccc12	111 to 113
CC(C)Cc1nc(N)sc1C(=O)O	149 to 151
Nc1ccc(Cl)c(S(=O)(=O)N2CCCCC2)c1	92 to 96
COc1ccc(N)cc1OCC(N)=O	161 to 163
O=S(=O)(Cl)c1c(Cl)nc2ccccn12	101 to 103
Cc1nc(-c2ccc(Cl)cc2)sc1C(C)N (configuration not stated)	42 to 44
O=C(O)C1C2C3CC4C5CC(C42)C1C53 (configuration not stated)	101 to 103
OC1CCCCC1c1ccc(F)cc1 (configuration not stated)	71 to 73
COc1ccccc1NS(=O)(=O)c1ccc2oc(S)nc2c1	109 to 113
Cc1nc2ncnn2c(C)c1CCC(=O)O	224 to 226
Fc1ccc(C2CNCCO2)cc1 (configuration not stated)	56 to 58
Cn1cc(C2NC(=O)CCC2N)cn1 (configuration not stated)	164 to 166
NNc1c(Cl)cc(F)cc1Cl	109 to 111
COC(=O)c1cc(N)cc(C(F)(F)F)c1	78 to 80
NC(=O)c1ccc2[nH]cc(C3CCNCC3)c2c1	149 to 151
O=C(O)CN1C(=O)c2ccc([N+](=O)[O-])cc2C1=O	197 to 199
CCOC(=O)c1cc(C(=O)O)cc([N+](=O)[O-])c1	178 to 180
CC(C)Oc1ncc(C(=O)O)cc1Cl	171 to 173
O=C(c1ccsc1)N1CCNCC1	235 to 237

Structure (SMILES)	melting point [°C]
O=C(O)C=Cc1ccc(S(=O)(=O)N2CCOCC2)cc1	249 to 251
CCC1CCCCC1NC(=O)c1ccnc(F)c1 (configuration not stated)	69 to 71
O=C(CN1CCNCC1)Nc1ccc(F)cc1	72 to 81
NNc1ccc(C(F)(F)F)nn1	132 to 134
O=C(O)c1nccnc1C(=O)Nc1ccc(F)cc1	177 to 179
CCOC(=O)CNC(=O)CC	50 to 52
CS(=O)(=O)Cc1nc(CCl)cs1	80 to 82
CC1(C(=O)O)CCOCC1	62 to 64
CC(=O)NCc1ccc(S(=O)(=O)Cl)s1	80 to 82
S=c1[nH]nnn1-c1ccc(Br)cc1	162 to 164
Cc1ccc(C)c(-c2n[nH]c(=O)c3ccccc23)c1	216 to 218
COc1ccc(N)cc1Br	58 to 60
NC(=O)c1csc(N)n1	196 to 198
Nc1cc(F)ccc1Sc1ncn[nH]1	180 to 182
c1coc(-c2nc(C3CCCCC3)n[nH]2)c1	147 to 149
Cc1nn(CC(F)(F)F)cc1C(=O)O	119 to 121
Cc1cc(C(C)(C)C)cc(C)c1CC#N	84 to 86
Cc1c(Br)cccc1S(=O)(=O)Cl	64 to 66
Cc1cc(/C=C(\C#N)C(=O)O)c(C)n1CCC(C)C	229 to 231
Nc1cncnc1N1CCCC1	156 to 158
NS(=O)(=O)c1ccc(Br)c([N+](=O)[O-])c1	185 to 187
Nc1ccc(Cc2nnc3ccccn23)cc1	207 to 209
Cc1[nH]nc(C(N)=O)c1N	219 to 221

Structure (SMILES)	melting point [°C]
Cn1cc(Nc2cccc(N)c2)cn1	92 to 94
O=C1OC(=O)c2cc(F)c(F)cc21	94 to 96
Cc1cncc(-n2ccnc2)c1	88 to 90
BrCCOc1ccc(Oc2ccccc2)cc1	35 to 37
CC1CC(=O)NC1=O (configuration not stated)	61 to 63
Nc1ccc(CN2CCCC2=O)cc1	124 to 126
COC(=O)C1=NOC(C(=O)O)C1 (configuration not stated)	83 to 85
NNC(=O)c1cc([N+](=O)[O-])c[nH]1	280 to 282
COc1ccc(CC(N)=NO)cc1OC	135 to 137
O=C(O)c1cn(-c2ccccc2)nc1-c1ccc(-c2ccccc2)cc1	255 to 257
COc1ccc(C(=O)Nc2cc(F)ccc2C(=O)O)cc1	225 to 227
CC(O)c1ccc(N(C)Cc2ccccn2)c(F)c1 (configuration not stated)	73 to 75
O=C(O)CCNS(=O)(=O)C(F)(F)F	87 to 89
Cn1c(CCl)nc2c1c(=O)[nH]c(=O)n2C	269 to 271
COc1cccc(C(C[N+](=O)[O-])c2c[nH]c3ccccc23)c1 (configuration not stated)	93 to 95
O=c1[nH]c(CN2CCOCC2)nc2sc3c(c12)CCCC3	162 to 164
NCCc1ccc(S(=O)(=O)N2CCCCC2)s1	74 to 76
CC(C)(C)OC(=O)N1CCC(OS(C)(=O)=O)CC1	84 to 86
CCCCn1c2c(c(=O)n(C)c1=O)C(CC(=O)O)C(=O)N2 (configuration not stated)	229 to 231
Cc1nn(C)c(=O)c(C(=O)N2CSCC2C(=O)O)c1C (configuration not stated)	209 to 211
O=C(O)c1n[nH]c2c1CCCC2	249 to 251

Other lines, results leading:

melting point [°C]	Structure (SMILES)
98 to 100	CCOc1ccc(S(=O)(=O)Cl)c2ccccc12
172 to 174	CCCC1(c2ccccc2)NC(=O)NC1=O (configuration not stated)
209 to 211	CCc1c(C(=O)O)cnn1-c1ccc(Br)cc1
169 to 171	COc1ccccc1-n1c(C)nnc1SCC(=O)O
85 to 90	Cc1ccc(-c2cc(C(=O)NN)c3ccccc3n2)cc1
168 to 170	Cc1ccc(C(=O)O)c(C)n1
209 to 211	Nc1ccc2c(ccn2CC(=O)N2CCOCC2)c1
84 to 86	CC(C)c1cccc(-c2ccc(C(=O)O)o2)c1
179 to 181	NC(=O)c1ccc(Cl)cc1N
141 to 143	Nc1ccc(NC(=O)NCC2CCCO2)cc1 (configuration not stated)
219 to 221	O=C(O)c1cc(F)cc2nccnc12
104 to 106	Oc1ccc2c(c1)OCC2O (configuration not stated)
107 to 109	O=C(O)C1Cc2ccccc2S1 (configuration not stated)
105 to 107	CC(C)(C)OC(=O)NCc1cccc(C(N)=S)c1
96 to 98	O=S(=O)(Cl)CCNS(=O)(=O)c1ccccc1
146 to 148	O=C(O)c1cc(S)ccc1Br
189 to 191	CCOc1ccc(Nc2ncccc2C(=O)O)cc1
69 to 71	N#CCC(=O)CCc1ccccc1

melting point [°C]	Structure (SMILES)
171 to 173	CSCCC(NC(=O)c1ccccc1Br)C(=O)O (configuration not stated)
186 to 188	NC(=O)C1(O)Cc2ccccc2C1
195 to 197	Nc1cc(S(=O)(=O)Nc2ccccc2Cl)ccc1O
146 to 148	Sc1nnc(NCc2ccccc2)s1
125 to 127	CC(C)(C(=O)O)c1ccc2c(c1)OCCO2
85 to 87	CCOC(=O)CC(C)(O)c1cccc(O)c1 (configuration not stated)
54 to 58	O=C(O)CCCc1ccc(Br)s1
133 to 135	Nc1cccc(NC(=O)C2CC2)c1
228 to 230	O=C(O)c1ccc2nc(Cl)ccc2c1
147 to 149	COC(=O)c1nnc2ccccc2c1Cl
159 to 161	O=C(O)CNC(=O)N1CCc2ccccc2C1
152 to 155	O=C(O)CSc1nnc(-c2ccco2)o1
91 to 93	Fc1ccc(-c2csc(Nc3ccccc3)n2)cc1
77 to 79	O=C(NCCCc1ccccc1)c1ccccc1O
267 to 269	O=C(Nc1cc(Cl)ccc1C(=O)O)c1cccs1
214 to 216	O=C(O)c1cc2c(F)cccc2s1
122 to 124	COc1ccc(C(C)=O)cc1CC(=O)O
